pIC50: −log10 of the molar value.

Holding throughout (format): biochemical
In test [1] the target is T1, LOXL1 (Homo sapiens, UniProt Q08397).
T1 sequence (Q08397 96-574): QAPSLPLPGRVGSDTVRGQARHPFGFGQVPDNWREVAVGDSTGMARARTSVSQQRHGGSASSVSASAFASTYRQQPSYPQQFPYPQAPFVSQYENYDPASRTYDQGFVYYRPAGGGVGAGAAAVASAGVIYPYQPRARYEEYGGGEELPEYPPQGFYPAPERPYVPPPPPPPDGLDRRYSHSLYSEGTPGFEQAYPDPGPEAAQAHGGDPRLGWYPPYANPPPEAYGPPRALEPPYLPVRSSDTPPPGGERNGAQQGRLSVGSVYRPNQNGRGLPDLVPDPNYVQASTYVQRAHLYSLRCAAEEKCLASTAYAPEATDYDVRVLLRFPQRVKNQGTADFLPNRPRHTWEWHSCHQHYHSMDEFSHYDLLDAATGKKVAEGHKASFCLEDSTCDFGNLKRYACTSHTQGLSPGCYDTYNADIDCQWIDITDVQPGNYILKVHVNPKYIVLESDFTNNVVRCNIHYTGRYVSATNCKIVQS
The experiment in a line: Jump dilution experiment, sustained inhibition of LOXL1. The following applies: for LOXL1 enzyme activity recovery: at 21-30 min after jump dilution, 10×IC50, 40 min preincubation at 37 °C; for Sustained inhibition of LOXL1: jump dilution, 21-30 min. On the procedure: Jump Dilution experiment: The assay was developed using a 96 well format and the starting enzyme concentration was set 100 times higher than for the inhibition studies. The enzyme was incubated for 40 minutes at 37 °C in presence of 10×IC50 concentrations of the test inhibitor. After the incubation, the mixture was diluted 50x in assay buffer, followed by a further 2× dilution in Amplex Red-horseradish peroxidase-putrescine reaction mix (as for Example 2) prior to the fluorescence measurement. Results were expressed in % recovery of the signal at 21-30 min by comparison with non-inhibited controls. LOXL1 is used as a surrogate for LOX owing to similar pharmacological behaviour.

Test [2] has as its target Human recombinant LOXL3 (Homo sapiens, UniProt P58215). The test can be described thus: LOXL3 inhibition, Amplex Red oxidation assay. The settings on record: 30 min incubation with enzyme at 37 °C. The method, then: (§1) LOX and LOXL protein family members can be acquired as recombinant active proteins from commercial sources, or extracted from animal tissues like bovine aorta, tendons, pig skin; or prepared from cell cultures. The inhibitory effects of the compounds of the present invention were tested against the given LOX or LOXL preparation using a method based on the detection of hydrogen peroxide with an Amplex Red oxidation assay [Zhou et al, 1997]. The assay was developed using either 384 or 96 well format. Briefly, in a standard black, clear bottom 384 well plate assay 25 µL of a dilution of any of the isoenzymes and orthologues in 1.2 M urea, 50 mM sodium borate buffer (pH 8.2) were added into each well in the presence of […] and 0.5 mM pargyline (to inhibit SSAO and MAO-B and MAO-A, respectively; not necessary if the enzyme is from a recombinant or purified form). Test compounds were dissolved in DMSO and tested in a Concentration Response Curve (CRC) with 11 data points, typically in the micromolar or nanomolar range after incubation with the enzyme for 30 min at 37 °C. […] The fluorescence (RFU) was read every 2.5 min for 30 min at 37 °C, excitation 544 nm and emission 590 (Optima; BMG labtech). The slope/min of the kinetics for each well was calculated using MARS data analysis software (BMG labtech) and this value was used to deduce the IC50 value (Dotmatics). […]

In test [3] the target is Human recombinant LOXL4 (Homo sapiens, UniProt Q96JB6). The test can be described thus: LOXL4 inhibition, Amplex Red oxidation assay. The settings on record: 30 min incubation with enzyme at 37 °C. The method, then:
as §1

In test [4] the target is T2, Bovine LOX (Bos taurus, UniProt P33072).
T2 sequence (P33072 170-418): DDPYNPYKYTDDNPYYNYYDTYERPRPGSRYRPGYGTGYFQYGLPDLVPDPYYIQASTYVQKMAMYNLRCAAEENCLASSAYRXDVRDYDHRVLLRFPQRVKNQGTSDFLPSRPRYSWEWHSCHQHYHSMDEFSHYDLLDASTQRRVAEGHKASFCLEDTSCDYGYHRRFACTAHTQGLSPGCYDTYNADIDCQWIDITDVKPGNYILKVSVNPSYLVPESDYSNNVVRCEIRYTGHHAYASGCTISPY
The experiment in a line: LOX inhibition, hydrogen peroxide Amplex Red oxidation assay. On the procedure:
LOX and LOXL protein family members can be acquired as recombinant active proteins from commercial sources, or extracted from animal tissues like bovine aorta, tendons, pig skin; or prepared from cell cultures. The inhibitory effects of the compounds of the present invention were tested against the given LOX or LOXL preparation using a method based on the detection of hydrogen peroxide with an Amplex Red oxidation assay [Zhou et al, 1997]. The assay was developed using either 384 or 96 well format. Briefly, in a standard black, clear bottom 384 well plate assay 25 µL of a dilution of any of the isoenzymes and orthologues in 1.2 M urea, 50 mM sodium borate buffer (pH 8.2) were added into each well in the presence of […] and 0.5 mM pargyline (to inhibit SSAO and MAO-B and MAO-A, respectively; not necessary if the enzyme is from a recombinant or purified form). […] of a reaction mixture containing twice the KM concentration of putrescine (Sigma Aldrich, e.g. 20 mM for LOX and LOXL1 or 10 mM for LOXL2 and 4 mM for LOXL3 and LOXL4), 120 µM Amplex Red (Thermo Fisher Scientific) and 1.5 U/mL horseradish peroxidase (Sigma Aldrich) prepared in 1.2 M urea, 50 mM sodium borate buffer (pH 8.2) were then added to the corresponding wells. The above volumes were doubled in the case of 96 wells plate. The fluorescence (RFU) was read every 2.5 min for 30 min at 37 °C, excitation 544 nm and emission 590 (Optima; BMG labtech). The slope/min of the kinetics for each well was calculated using MARS data analysis software (BMG labtech) and this value was used to deduce the IC50 value (Dotmatics). The ability of the inventive compounds to inhibit the amine oxidase activity of LOX and other family members is shown in Table 5.

[5] abbreviates: 30 min incubation with enzyme at 37 °C.

Chain of Human recombinant LOXL3 (P58215 26-753): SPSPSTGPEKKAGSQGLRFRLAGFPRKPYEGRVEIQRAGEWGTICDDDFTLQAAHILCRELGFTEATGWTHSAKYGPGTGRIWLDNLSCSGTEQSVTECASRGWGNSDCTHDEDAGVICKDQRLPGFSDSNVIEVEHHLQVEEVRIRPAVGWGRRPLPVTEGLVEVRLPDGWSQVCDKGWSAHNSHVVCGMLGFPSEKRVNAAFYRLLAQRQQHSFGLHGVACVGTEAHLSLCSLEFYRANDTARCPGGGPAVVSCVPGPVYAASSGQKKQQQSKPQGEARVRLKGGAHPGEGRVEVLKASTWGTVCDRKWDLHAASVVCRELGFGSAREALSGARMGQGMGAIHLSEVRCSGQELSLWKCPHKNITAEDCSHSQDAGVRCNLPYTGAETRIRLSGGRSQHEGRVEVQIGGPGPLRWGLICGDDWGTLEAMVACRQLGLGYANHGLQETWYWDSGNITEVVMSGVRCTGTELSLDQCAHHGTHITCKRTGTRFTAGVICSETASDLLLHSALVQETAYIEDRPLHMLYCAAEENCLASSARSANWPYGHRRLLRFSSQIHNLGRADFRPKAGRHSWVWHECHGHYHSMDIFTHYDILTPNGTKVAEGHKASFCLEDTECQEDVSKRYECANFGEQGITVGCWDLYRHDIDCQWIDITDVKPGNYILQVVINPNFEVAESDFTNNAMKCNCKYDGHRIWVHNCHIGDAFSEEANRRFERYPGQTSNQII
Chain of Human recombinant LOXL4 (Q96JB6 25-756): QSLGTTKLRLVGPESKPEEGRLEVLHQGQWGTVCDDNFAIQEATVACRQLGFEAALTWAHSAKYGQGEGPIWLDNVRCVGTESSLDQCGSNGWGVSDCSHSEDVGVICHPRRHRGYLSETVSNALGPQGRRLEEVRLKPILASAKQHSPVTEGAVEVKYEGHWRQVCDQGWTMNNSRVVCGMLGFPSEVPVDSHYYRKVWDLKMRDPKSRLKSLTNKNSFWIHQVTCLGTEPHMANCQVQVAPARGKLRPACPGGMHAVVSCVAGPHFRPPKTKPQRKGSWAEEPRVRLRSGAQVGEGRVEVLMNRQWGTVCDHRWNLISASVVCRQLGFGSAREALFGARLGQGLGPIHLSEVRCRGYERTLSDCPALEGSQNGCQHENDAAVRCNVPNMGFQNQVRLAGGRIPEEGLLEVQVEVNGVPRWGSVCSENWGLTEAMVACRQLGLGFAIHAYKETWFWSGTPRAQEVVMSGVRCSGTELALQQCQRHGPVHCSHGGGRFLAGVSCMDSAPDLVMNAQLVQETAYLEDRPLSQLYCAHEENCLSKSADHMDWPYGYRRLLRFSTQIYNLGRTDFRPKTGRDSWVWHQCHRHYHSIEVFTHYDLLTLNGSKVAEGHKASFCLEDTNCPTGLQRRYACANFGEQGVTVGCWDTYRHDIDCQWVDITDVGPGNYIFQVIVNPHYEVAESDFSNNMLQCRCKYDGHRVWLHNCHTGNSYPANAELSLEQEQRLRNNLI

In the case of `N#CCCN` [BAPN, β-aminopropionitrile, reference compound], in test [1], the “LOXL1 enzyme activity recovery” value is recorded as 0.3%. Moreover, the “Sustained inhibition of LOXL1” value in test [1] is “sustained inhibition”. The pIC50 was 6.30 in test [2], 6.52 in test [3] and 5.64 in test [4] (setting [5]).

Take `NC/C(=C\F)CS(=O)(=O)c1ccccc1` [Compound 1, (E)-3-fluoro-2-((phenylsulfonyl)methyl)prop-2-en-1-amine]: the “LOXL1 enzyme activity recovery” value in test [1] worked out at 2.5%. For the same compound, the “Sustained inhibition of LOXL1” value in test [1] is given as “sustained inhibition”. The pIC50 in test [2] was 5.23; in test [3], 5.33; in test [4] (setting [5]), 5.00; in test [4] (2 h incubation with enzyme at 37 °C), above 5.30.

What is called pIC50 is the negative decadic logarithm of the IC50, by convention in mol/L.
